# Patent US11504386B2, “Preparation method for various novel fucosyl oligosaccharides and use thereof” (Korea University Research and Business Foundation, priority 2017, dated 2022)
# Experiments:
# E. coli O1:K1:H7 = experiment: Capability of pathogenic microorganism to ferment FGal (E. coli); format: cell-based; conditions: medium with 3 g/L purified FGal, 37° C., FIG. 9
# Source text: (§1) To verify the prebiotic effect of FGal, the cell growth of strains such as Bifidobacterium longum subsp. infantis ATCC 15697 and Bifidobacterium bifidum DSM 20082 was monitored. In addition, to conduct a test for the capabilities of pathogenic microorganisms to ferment FGal, the cell growth of strains such as E. coli O1:K1:H7 and Salmonella enterica serovar typhimurium was monitored. At this time, the medium contained 10 g/L of BactoPeptone, 5 g/L of yeast extract, 2 g/L of K2HPO4 (anhydrous), 5 g/L of Na acetate (anhydrous), 2 g/L of NH4 citrate tribasic, 0.2 g/L of Mg sulfate heptahydrate, 0.05 g/L of Mn sulfate, 1 mL/L of Tween 80 (polysorbate 80), 0.5 g/L of cysteine, and 3 g/L of purified FGal, and the strains were cultured at 37° C.
# [1] = system: Bifidobacterium bifidum DSM 20082; experiment: Prebiotic effect: cell growth and metabolism of FGal by Bifidobacterium bifidum; format: cell-based; conditions: medium with 3 g/L purified FGal, 37° C., FIG. 8
# Source text: as §1
# [2] = system: Salmonella enterica serovar typhimurium; experiment: Capability of pathogenic microorganism to ferment FGal (Salmonella); format: cell-based; conditions: medium with 3 g/L purified FGal, 37° C., FIG. 9
# Source text: as §1
# hippocampal neurons = hippocampal neurons (brain neural cells) treated with FGal; stated as known; cited from earlier work
# [3] = system: Bifidobacterium longum subsp. infantis ATCC 15697; experiment: Prebiotic effect: cell growth and metabolism of FGal by Bifidobacterium longum subsp. infantis; format: cell-based; conditions: medium with 3 g/L purified FGal, 37° C., FIG. 8
# Source text: as §1
smiles,measurement,setting,value
"C[C@@H]1O[C@@H](O[C@H]2C(O)O[C@H](CO)[C@H](O)[C@@H]2O)[C@@H](O)[C@H](O)[C@@H]1O (stereo partly shown) [FGal, 2′-fucosylgalactose]",metabolism of FGal by pathogenic microorganism,E. coli O1:K1:H7,unable to metabolize
same,metabolism (fermentation) of FGal by the strain,[1],"first decomposed FGal into fucose and galactose extracellularly, and then metabolized a small amount of galactose"
same,metabolism (fermentation) of FGal by the strain,[1]; listed as 2-fucosylgalactose,"extracellularly decomposes 2-fucosylgalactose into galactose and fucose, and then uses only galactose"
same,metabolism of FGal by pathogenic microorganism,[2],unable to metabolize
same,growth of nerve cells,hippocampal neurons,promotes the growth of nerve cells
same,metabolism (fermentation) of FGal by the strain,[3],decomposed FGal into galactose and fucose through intracellular fucosidase and used both
same,metabolism (fermentation) of FGal by the strain,[3]; listed as 2-fucosylgalactose,decomposes 2-fucosylgalactose into galactose and fucose through intracellular fucosidase and uses both
